In patent publication US20170107179A1 (Tetraphase Pharmaceuticals, Inc., priority 2010, published 2017):
Converted amounts (≈) assume the structure as drawn. Like-named read-outs stand apart in the source and are kept apart here.

Columns and labels:
S. aureus Smith = assay: Mouse systemic infection (septicemia) model, CD-1 mice; conditions: Staphylococcus aureus, in Mus musculus, 48 h; for responders at 3 mg/kg: iv, read-out: Percent survival at 48 hours, IV (3 mg/kg); for responders at 30 mg/kg: po, read-out: Percent survival at 48 hours, PO (30 mg/kg)
[1] = test system: Gram-negative and Gram-positive organisms (clinical isolates); assay: Broth microdilution MIC against clinical isolates (CLSI M7-A8), Table 9; assay type: cell-based
[2] = Klebsiella aerogenes, Enterobacter aerogenes, n=30
[3] = Klebsiella pneumoniae, Klebsiella pneumonia, n=27
[4] = Staphylococcus aureus, Staphylococcus aureus (MRSA PVL+), n=30, read-out: MIC90
[5] = Staphylococcus aureus, Staphylococcus aureus MRSA (includes MRSA PVL+ group), n=105, read-out: MIC50
[6] = Staphylococcus aureus, Staphylococcus aureus MRSA (includes MRSA PVL+ group), n=105, read-out: MIC90
[7] = Stenotrophomonas maltophilia, n=29
[8] = Streptococcus intermedius, n=30
[9] = Streptococcus sanguis, n=18, read-out: MIC50
[10] = Streptococcus sanguis, n=18, read-out: MIC90

`CC(C)[C@H](C)N1Cc2c(O)c3c(c(F)c2C1)C[C@H]1C[C@H]2[C@H](N(C)C)C(O)=C(C(N)=O)C(=O)[C@@]2(O)C(O)=C1C3=O` [Compound 137] showed a responders at 3 mg/kg (S. aureus Smith) of 33% and a responders at 30 mg/kg (S. aureus Smith) of 33%.

For `CC[C@H](C)N1Cc2c(O)c3c(c(Cl)c2C1)C[C@H]1C[C@H]2[C@H](N(C)C)C(O)=C(C(N)=O)C(=O)[C@@]2(O)C(O)=C1C3=O` [Compound 110], the responders at 3 mg/kg (S. aureus Smith) was 33% and the responders at 30 mg/kg (S. aureus Smith) was 50%.

In the case of `CC[C@@H](C)N1Cc2c(O)c3c(c(C(F)(F)F)c2C1)C[C@H]1C[C@H]2[C@H](N(C)C)C(O)=C(C(N)=O)C(=O)[C@@]2(O)C(O)=C1C3=O` [Compound 128], the responders at 3 mg/kg (S. aureus Smith) is reported as 17% and the responders at 30 mg/kg (S. aureus Smith) is reported as 0%.

`C[C@H]1COc2c(N3CCN(C)CC3)c(F)cc3c(=O)c(C(=O)O)cn1c23` [Levofloxacin, levofloxacin] gave an MIC50 ([1]; Acinetobacter lwoffii, n=29, read-out: MIC50) of at most 0.25 µg/mL, an MIC90 ([1]; Acinetobacter lwoffii, n=29, read-out: MIC90) of at most 0.25 µg/mL and an MIC50 ([1]; Enterobacter cloacae, n=29) of 1 µg/mL (≈ 2.77 µM). It also gave an MIC90 ([1]; Enterobacter cloacae, n=29) of over 4 µg/mL, an MIC50 ([1]; Escherichia coli, n=40) of at most 0.25 µg/mL and an MIC90 ([1]; Escherichia coli, n=40) of over 4 µg/mL. It also gave an MIC50 ([1]; Kiebsielia oxytoca, n=30) of at most 0.25 µg/mL, an MIC90 ([1]; Kiebsielia oxytoca, n=30) of 4 µg/mL (≈ 11.1 µM) and an MIC50 [1, 2] of at most 0.25 µg/mL. It also gave an MIC90 [1, 2] of at most 0.25 µg/mL, an MIC50 [1, 3] of 1 µg/mL (≈ 2.77 µM) and an MIC90 [1, 3] of over 4 µg/mL. For the same compound, the MIC50 ([1]; Morganella morganii, n=30) was at most 0.25 µg/mL, the MIC90 ([1]; Morganella morganii, n=30) was 4 µg/mL (≈ 11.1 µM) and the MIC50 ([1]; Proteus vulgaris, n=29) was at most 0.25 µg/mL. It also gave an MIC90 ([1]; Proteus vulgaris, n=29) of 1 µg/mL (≈ 2.77 µM), an MIC50 ([1]; Salmonella species, n=30, read-out: MIC50) of at most 0.25 µg/mL and an MIC90 ([1]; Salmonella species, n=30, read-out: MIC90) of at most 0.25 µg/mL. For the same compound, the MIC50 ([1]; Serratia marcescens, n=30) was at most 0.25 µg/mL, the MIC90 ([1]; Serratia marcescens, n=30) was 2 µg/mL (≈ 5.53 µM) and the MIC90 ([1]; Shigella species, n=30, read-out: MIC90) was 0.5 µg/mL (≈ 1.38 µM). It also gave an MIC50 ([1]; Staphylococcus aureus, Staphylococcus aureus (MRSA PVL+), n=30, read-out: MIC50) of 0.25 µg/mL (≈ 0.692 µM), an MIC90 [1, 4] of over 2 µg/mL and an MIC50 [1, 5] of over 2 µg/mL. The MIC90 [1, 6] was over 2 µg/mL, the MIC50 [1, 7] was 0.5 µg/mL (≈ 1.38 µM) and the MIC90 [1, 7] was over 4 µg/mL. The MIC50 ([1]; Streptococcus anginosus, n=20) was 0.5 µg/mL (≈ 1.38 µM), the MIC90 ([1]; Streptococcus anginosus, n=20) was 0.5 µg/mL (≈ 1.38 µM) and the MIC50 [1, 8] was 1 µg/mL (≈ 2.77 µM). The MIC90 [1, 8] was 2 µg/mL (≈ 5.53 µM), the MIC50 ([1]; Streptococcus mitis, n=29) was 1 µg/mL (≈ 2.77 µM) and the MIC90 ([1]; Streptococcus mitis, n=29) was 2 µg/mL (≈ 5.53 µM). It also gave an MIC50 [1, 9] of 0.5 µg/mL (≈ 1.38 µM) and an MIC90 [1, 10] of 2 µg/mL (≈ 5.53 µM).

Compound `CN(C)[C@@H]1C(O)=C(C(N)=O)C(=O)[C@@]2(O)C(O)=C3C(=O)c4c(O)c5c(c(C(F)(F)F)c4C[C@H]3C[C@@H]12)CN(C(C)(C)C)C5` [Compound 112] has a responders at 3 mg/kg (S. aureus Smith) of 100% and a responders at 30 mg/kg (S. aureus Smith) of 20%.

In the case of `CC[C@@H](C)N1Cc2c(O)c3c(c(F)c2C1)C[C@H]1C[C@H]2[C@H](N(C)C)C(O)=C(C(N)=O)C(=O)[C@@]2(O)C(O)=C1C3=O` [Compound 130], the responders at 3 mg/kg (S. aureus Smith) is reported as 33% and the responders at 30 mg/kg (S. aureus Smith) is reported as 83%.

For `COc1c2c(c(O)c3c1C[C@H]1C[C@H]4[C@H](N(C)C)C(O)=C(C(N)=O)C(=O)[C@@]4(O)C(O)=C1C3=O)CN(C(C)(C)C)C2` [Compound 125], the responders at 3 mg/kg (S. aureus Smith) was 100% and the responders at 30 mg/kg (S. aureus Smith) was 33%.

With `CN[C@H](CC(C)C)C(=O)N[C@H]1C(=O)N[C@@H](CC(N)=O)C(=O)N[C@H]2C(=O)N[C@H]3C(=O)N[C@H](C(=O)N[C@H](C(=O)O)c4cc(O)cc(O)c4-c4cc3ccc4O)[C@H](O)c3ccc(c(Cl)c3)Oc3cc2cc(c3O[C@@H]2O[C@H](CO)[C@@H](O)[C@H](O)[C@H]2O[C@H]2C[C@](C)(N)[C@H](O)[C@H](C)O2)Oc2ccc(cc2Cl)[C@H]1O` [Vancomycin, vancomycin] the MIC50 ([1]; Staphylococcus aureus (MRSA PVL+), n=30, read-out: MIC50) was 1 µg/mL (≈ 0.69 µM), the MIC90 [1, 4] was 1 µg/mL (≈ 0.69 µM) and the MIC50 [1, 5] was 1 µg/mL (≈ 0.69 µM). For the same compound, the MIC90 [1, 6] was 1 µg/mL (≈ 0.69 µM), the MIC50 ([1]; Streptococcus anginosus, n=20, read-out: MIC50) was 0.5 µg/mL (≈ 0.345 µM) and the MIC90 ([1]; Streptococcus anginosus, n=20, read-out: MIC90) was 0.5 µg/mL (≈ 0.345 µM). For the same compound, the MIC50 ([1]; Streptococcus intermedius, n=30, read-out: MIC50) was 0.5 µg/mL (≈ 0.345 µM), the MIC90 ([1]; Streptococcus intermedius, n=30, read-out: MIC90) was 0.5 µg/mL (≈ 0.345 µM) and the MIC50 ([1]; Streptococcus mitis, n=29, read-out: MIC50) was 0.5 µg/mL (≈ 0.345 µM). For the same compound, the MIC90 ([1]; Streptococcus mitis, n=29, read-out: MIC90) was 0.5 µg/mL (≈ 0.345 µM), the MIC50 [1, 9] was 0.5 µg/mL (≈ 0.345 µM) and the MIC90 [1, 10] was 1 µg/mL (≈ 0.69 µM).
